Measurements reported in publication PMC12775434, “Ultra-large virtual screening unveils potent agonists of the neuromodulatory orphan receptor GPR139” (Nature Communications, 2025).
Values joined by “and” are separate entries in the source; they are usually repeats but may differ in a detail not shown here. Equal entries are not always repeated.

Key:
Assay type in all cases: cell-based
GPR139 (Gi2 activation) = target: T1, GPR139 (Gi2 activation) (Homo sapiens, UniProt Q6DWJ6); assay: BRET G protein activation (dissociation) assay, Gi2, HEK293A; conditions: for G protein activation, Gi2: individual replicates
T1 construct: expressed in transfected cells; host or cells: HEK293A (transient, Lipofectamine 2000)
T1 sequence (Q6DWJ6 1-353): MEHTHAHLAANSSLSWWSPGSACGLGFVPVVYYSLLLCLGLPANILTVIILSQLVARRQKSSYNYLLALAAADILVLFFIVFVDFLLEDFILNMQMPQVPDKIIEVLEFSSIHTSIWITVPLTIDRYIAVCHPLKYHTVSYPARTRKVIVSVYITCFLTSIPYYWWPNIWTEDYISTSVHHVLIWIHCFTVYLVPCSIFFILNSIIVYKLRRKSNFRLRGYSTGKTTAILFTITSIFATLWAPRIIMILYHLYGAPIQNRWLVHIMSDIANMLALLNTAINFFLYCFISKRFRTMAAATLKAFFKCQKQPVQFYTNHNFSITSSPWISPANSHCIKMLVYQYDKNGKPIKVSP
Protocol: (§1) Primary screening and pharmacological characterization of compounds were performed using a CHO-K1 cell line that stably expresses human GPR139 (GPR139-CHOk1). The GPR139-CHOk1 cell line was kindly provided by H. Lundbeck A/S, Denmark[24]. GPR139-CHOk1 cells were grown in Ham’s F-12 Kaighn’s Modification Medium (ThermoFisher #21127030) supplemented with 10% dialyzed fetal bovine serum (US origin, ThermoFisher #26400044), 100 units/mL Penicillin-Streptomycin (ThermoFisher #15140122), and 1 mg/mL Geneticin (ThermoFisher #11811031). […] M1R-CHOk1 cells were purchased from The Missouri S&T cDNA Resource Center (#CEM100TN00). M1R-CHOk1 cells were grown in Ham’s F12 Medium (ThermoFisher #21765029) supplemented with 10% fetal bovine serum (Brazilian origin, ThermoFisher #10270106), 100 units/mL Penicillin-Streptomycin, and 0.25 mg/mL Geneticin. HEK293A cells transiently transfected with GPR139 were used for additional pharmacological assessment of signaling pathways activated by GPR139. HEK239A cells were generously provided by Dr. Asuka Inoue, Tohoku University, Japan. HEK293A cells were grown in Dulbecco’s Modified Eagle Medium (ThermoFisher #31966047) supplemented with 10% dialyzed fetal bovine serum and 100 units/mL Penicillin-Streptomycin. Cell lines were maintained at 37 °C in humidified incubator equilibrated with 5% CO2.
(§2) The G protein dissociation assay developed by the lab of Kirill A. Martemyanov was used to measure the coupling of multiple G proteins by GPR139[57]. The assay was performed as described previously with minor modifications. HEK293A cells were reverse transfected 20–24 h prior to assay. 50,000 cells were plated in each well of white opaque tissue culture treated 96-well plates (PerkinElmer #6005680) previously coated with poly-D-lysine. Transfection solutions were prepared as described, and 10 µL transfection solution was mixed with 100 µL cells in each well. The cells in each well were transfected with 18.9 ng GPR139, 6.3 ng Venus 1-155 Gγ2, 6.3 ng Venus 159-239 Gβ1, 6.3 ng masGRK3ct-NanoLuc and 12.6 ng Gαi2, 12.6 ng Gαi3, 12.6 ng GαoA, 12.6 ng Gαq or 25.2 ng Gα12 using 375 nL Lipofectamine 2000 Transfection Reagent. Transfections with Gαq and Gα12 contained 6.3 ng DNA of the active subunit S1 of pertussis toxin (PTX-S1). Each transfection was normalized to 150 ng total DNA with pcDNA3.1. The BRET biosensors were a kind gift from the Martemyanov lab. On the day of the experiment the cells were washed with HEPES buffer. Test compounds were diluted in HEPES buffer from DMSO stocks (final DMSO concentration of maximally 0.3%). NanoLuc Luciferase substrate NanoGlo—furimazine (Promega #N1120) was diluted 1000-fold (final) in HEPES buffer. NanoGlo and test compounds were added, and measurements were performed after 10 s for Gi3, 15 s for Gi2 and GoA, 20 s for Gq, and 90 s for G12—the timepoint where maximal signal occurred with each G protein, ensuring proper determination of the potency for the G protein coupling. Simultaneous dual emission was measured at 535 nm and 475 nm on LUMIstar Omega Microplate Reader (BMG Labtech) at room temperature. The BRET ratio of 535 nm/475 nm (Venus/NanoLuc), reflecting the dissociation of the G protein heterotrimer, was used to determine the G protein activation. The basal BRET ratio obtained with buffer condition was subtracted from the absolute BRET ratio at a given test compound concentration, and the responses were normalized to the one obtained with 10 µM JNJ-63533054 for the activation of Gi2.
(§3) Pharmacological data and statistical analyses were performed in GraphPad Prism v9–10 (Graphpad Software Inc., San Diego, CA), which are also specifically described in the figure and table legends. […]

GPR139 (GoA activation) = target: T2, GPR139 (GoA activation) (Homo sapiens, UniProt Q6DWJ6); assay: BRET G protein activation (dissociation) assay, GoA, HEK293A; conditions: for G protein activation, GoA: individual replicates
T2 construct: expressed in transfected cells; host or cells: HEK293A (transient, Lipofectamine 2000)
T2 sequence (Q6DWJ6 1-353): T1 sequence (Q6DWJ6 1-353)
Protocol: as §1, §2, §3

GPR139 (Gq activation) = target: T3, GPR139 (Gq activation) (Homo sapiens, UniProt Q6DWJ6); assay: BRET G protein activation (dissociation) assay, Gq, HEK293A; conditions: for G protein activation, Gq: individual replicates
T3 construct: expressed in transfected cells; host or cells: HEK293A (transient, Lipofectamine 2000)
T3 sequence (Q6DWJ6 1-353): T1 sequence (Q6DWJ6 1-353)
Protocol: as §1, §2, §3

[1] = HEK293-A, normalized to JNJ-63533054 (JNJ(S))

SMILES: Cc1cscc1-c1nc(CC(=O)N[C@H](C)c2ccccc2)no1 [1.1(R)]
- Emax (GPR139 (Gi2 activation); [1]): 88 ± 11%
- EC50 (GPR139 (Gi2 activation); Supplementary Table 6, read-out: pEC50 Gi2 (converted)): 794 nM
- G protein activation, Gi2 (GPR139 (Gi2 activation); log [compound] M -4.5): 74 % of JNJ-63533054 at Gi2 and 72 % of JNJ-63533054 at Gi2 and 95 % of JNJ-63533054 at Gi2
- G protein activation, Gi2 (GPR139 (Gi2 activation); log [compound] M -5.0): 74 % of JNJ-63533054 at Gi2 and 67 % of JNJ-63533054 at Gi2 and 91 % of JNJ-63533054 at Gi2
- G protein activation, Gi2 (GPR139 (Gi2 activation); log [compound] M -5.5): 63 % of JNJ-63533054 at Gi2 and 47 % of JNJ-63533054 at Gi2 and 77 % of JNJ-63533054 at Gi2
- G protein activation, Gi2 (GPR139 (Gi2 activation); log [compound] M -6.0): 51 % of JNJ-63533054 at Gi2 and 35 % of JNJ-63533054 at Gi2 and 64 % of JNJ-63533054 at Gi2
- G protein activation, Gi2 (GPR139 (Gi2 activation); log [compound] M -6.5): 30 % of JNJ-63533054 at Gi2 and 18 % of JNJ-63533054 at Gi2 and 40 % of JNJ-63533054 at Gi2
- G protein activation, Gi2 (GPR139 (Gi2 activation); log [compound] M -7.0): 9 % of JNJ-63533054 at Gi2 and 1.06 % of JNJ-63533054 at Gi2 and 24 % of JNJ-63533054 at Gi2
- G protein activation, Gi2 (GPR139 (Gi2 activation); log [compound] M -7.5): 6 % of JNJ-63533054 at Gi2 and -1.09 % of JNJ-63533054 at Gi2 and 22 % of JNJ-63533054 at Gi2
- G protein activation, Gi2 (GPR139 (Gi2 activation); log [compound] M -8.0): -2.65 % of JNJ-63533054 at Gi2 and -5 % of JNJ-63533054 at Gi2 and 18 % of JNJ-63533054 at Gi2
- Emax (GPR139 (GoA activation); [1]): 75 ± 3%
- EC50 (GPR139 (GoA activation); Supplementary Table 6): 794 nM
- G protein activation, GoA (GPR139 (GoA activation); log [compound] M -4.5): 74 % of JNJ-63533054 at Gi2 and 67 % of JNJ-63533054 at Gi2 and 78 % of JNJ-63533054 at Gi2
- G protein activation, GoA (GPR139 (GoA activation); log [compound] M -5.0): 69 % of JNJ-63533054 at Gi2 and 63 % of JNJ-63533054 at Gi2 and 75 % of JNJ-63533054 at Gi2
- G protein activation, GoA (GPR139 (GoA activation); log [compound] M -5.5): 62 % of JNJ-63533054 at Gi2 and 48 % of JNJ-63533054 at Gi2 and 61 % of JNJ-63533054 at Gi2
- G protein activation, GoA (GPR139 (GoA activation); log [compound] M -6.0): 47 % of JNJ-63533054 at Gi2 and 34 % of JNJ-63533054 at Gi2 and 45 % of JNJ-63533054 at Gi2
- G protein activation, GoA (GPR139 (GoA activation); log [compound] M -6.5): 19 % of JNJ-63533054 at Gi2 and 16 % of JNJ-63533054 at Gi2 and 26 % of JNJ-63533054 at Gi2
- G protein activation, GoA (GPR139 (GoA activation); log [compound] M -7.0): 7.39 % of JNJ-63533054 at Gi2 and 4 % of JNJ-63533054 at Gi2 and 10 % of JNJ-63533054 at Gi2
- G protein activation, GoA (GPR139 (GoA activation); log [compound] M -7.5): 0.895 % of JNJ-63533054 at Gi2 and 2 % of JNJ-63533054 at Gi2 and 3.63 % of JNJ-63533054 at Gi2
- G protein activation, GoA (GPR139 (GoA activation); log [compound] M -8.0): -4.44 % of JNJ-63533054 at Gi2 and -2.19 % of JNJ-63533054 at Gi2 and 2.68 % of JNJ-63533054 at Gi2
- Emax (GPR139 (Gq activation); [1]): 21 ± 3%
- EC50 (GPR139 (Gq activation); Supplementary Table 6): 2510 nM
- G protein activation, Gq (GPR139 (Gq activation); log [compound] M -4.5): 17 % of JNJ-63533054 at Gi2 (2×) and 25 % of JNJ-63533054 at Gi2
- G protein activation, Gq (GPR139 (Gq activation); log [compound] M -5.0): 16 % of JNJ-63533054 at Gi2 and 21 % of JNJ-63533054 at Gi2 and 15 % of JNJ-63533054 at Gi2
- G protein activation, Gq (GPR139 (Gq activation); log [compound] M -5.5): 10 % of JNJ-63533054 at Gi2 and 12 % of JNJ-63533054 at Gi2 (2×)
- G protein activation, Gq (GPR139 (Gq activation); log [compound] M -6.0): 4.28 % of JNJ-63533054 at Gi2 and 5.63 % of JNJ-63533054 at Gi2 and 5 % of JNJ-63533054 at Gi2
- G protein activation, Gq (GPR139 (Gq activation); log [compound] M -6.5): 0.0563 % of JNJ-63533054 at Gi2 and -0.806 % of JNJ-63533054 at Gi2 and 0.934 % of JNJ-63533054 at Gi2
- G protein activation, Gq (GPR139 (Gq activation); log [compound] M -7.0): -1.52 % of JNJ-63533054 at Gi2 and -1.69 % of JNJ-63533054 at Gi2 and -0.279 % of JNJ-63533054 at Gi2
- G protein activation, Gq (GPR139 (Gq activation); log [compound] M -7.5): -0.908 % of JNJ-63533054 at Gi2 and -3 % of JNJ-63533054 at Gi2 and -0.0719 % of JNJ-63533054 at Gi2
- G protein activation, Gq (GPR139 (Gq activation); log [compound] M -8.0): -5.54 % of JNJ-63533054 at Gi2 and -3 % of JNJ-63533054 at Gi2 and 1.13 % of JNJ-63533054 at Gi2
